The values that follow come from patent US5250194A, “N-dodecyl heterocyclic compounds useful as industrial microbicides and preservatives” (Buckman Laboratories International, Inc., priority 1992, dated 1993).

One test has as its system E. aerogenes. Kind of test: Pulp substrate method, minimum inhibitory concentration. In kind it is cell-based. The source says:
The minimum inhibitory concentrations are those in which a percentage kill of at least 80% is obtained.

The test system of the next test is P. aeruginosa. The test can be described thus: Basal salts method, minimum inhibitory concentration. In kind it is cell-based. The note with it: basal salts solution. The protocol:
The preferred compounds of the present invention were tested by the pulp substrate method and basal salts method described in U.S. Pat. No. 2,881,070 at column 5, beginning at line 12 and extending to column 6, line 53. The disclosure of U.S. Pat. No. 2,881,070 is specifically incorporated by reference herein. […] The minimum inhibitory concentrations are those in which a percentage kill of at least 80% is obtained.

Another test relates to Aspergillus niger. The test can be described thus: Fungal growth inhibition, minimum inhibitory concentration. In kind it is cell-based. Conditions: pH 6.0, completely prevented growth, read-out: Minimum inhibitory concentration against fungi. As to the method: The microorganism growth inhibiting activity of N-dodecyl heterocyclic compounds on the fungus Aspergillus niger was evaluated.

A further test relates to Chlorella pyrenoidosa. Kind of test: Algae growth inhibition in Difco Algae Broth. In kind it is cell-based. The note with it: Auxenochlorella pyrenoidosa, 672 h. As to the method:
(§1) The growth inhibiting activity of the method of the invention against the three algae Chlorella pyrenoidosa, Chlorococcum hypnosporum and Phormidium inundatum was evaluated in Difco Algae Broth, the content of which was as follows:
(§2) Forty-gram portions of the algae medium were added to 250 mL Pyrex Erlenmeyer flasks fitted with loose metal caps and then sterilized. Each of the following substances wa then added to the flasks in the order listed:
(§3) 1. Sterile algae medium as required to bring the total weight of the contents of each flask to 50 grams, after allowing for all subsequent additions specified below.
(§4) 2. A solution of the N-dodecyl heterocyclic toxicant or of a control agent to be evaluated in each test, to give the concentration desired in parts per million by weight.
(§5) 3. Chlorella pyrenoidosa, Chlorococcum hypnosporum and Phormidium inundatum in amounts sufficient to give excellent growth in the controls after 14 days. This was achieved by adding 1 milliliter of a 14 day old culture having luxuriant growth. The Chlorella pyrenoidosa culture was obtained from American Type Culture Collection No. 7516; Chlorococcum hynosporum, from the University of Texas at Austin; and Phormidium inundatum, Wisconsin No. 1093, from the University of Washington.
(§6) As a control experiment, WSCP was used as a positive control agent. WSCP is a known toxicant which kills C. pyrenoidosa at 2 ppm, C. hypnosporum at 2 ppm and P. inundatum at 10 ppm. Control experiments were also carried out where no toxicants were also employed. In the algicidal tests the growth of algae in the nutrient medium is lush green and can be seen with the naked eye. Because the minimum inhibitory concentrations of the compounds in this example are those which result in complete inhibition evaluation of the test results is not subjective.
(§7) After the inoculum of the test algae was added, the flasks were incubated at a temperature of 28° ±2° C. under fluorescent illumination of 250 foot-candle intensity (8 hours light, 16 hours darkness) for a period adequate for growth in the controls (those portions of medium which contained no toxicant). Observations of growth were made at 7-day intervals. Minimum inhibitory concentrations are those that prevented complete growth after 28 days.

Another test deals with Chlorococcum hypnosporum. Kind of test: Algae growth inhibition in Difco Algae Broth. In kind it is cell-based. Conditions: 672 h. The protocol:
as §1, §2, §3, §4, §5, §6, §7

The conditions of test [1]: Firestone and Pisano; cited from earlier work.
The conditions of test [2]: Barker and Hadgraft; cited from earlier work.
For another test, the system named is Phormidium inundatum. Kind of test: Algae growth inhibition in Difco Algae Broth. In kind it is cell-based. The note with it: 672 h. The protocol: as §1, §2, §3, §4, §5, §6, §7
In a further test the test system is cholesterol biosynthesis. The note with it: rat liver; Baggeley et al.; cited from earlier work.
The test system of a further test is epoxidation of aldrin. Conditions: rat liver; Wilkinson et al.; cited from earlier work.
[3] abbreviates: C. pyrenoidosa, pH 7.0, 28 days, read-out: Minimum inhibitory concentration against algae.
[4] abbreviates: C. hypnosporum, pH 7.0, 28 days, read-out: Minimum inhibitory concentration against algae.
Setting [5] is: P. inundatum, pH 7.0, 28 days, read-out: Minimum inhibitory concentration against algae.
Where [6] appears, read: pH 7, read-out: Minimum inhibitory concentration against algae.

In brackets after ≈: the same amount, converted by molar mass. Read-outs that look alike come from different tables or passages of the source.

For the molecule `CCCCCCCCCCCCN1CCOCC1` [Compound 1, N-Dodecylmorpholine], the Minimum inhibitory concentration with E. aerogenes (pH 6.0, at least 80% kill) turned out to be 25; with E. aerogenes (pH 8.0, at least 80% kill), 25; with P. aeruginosa (pH 6.0, at least 80% kill), 8; in the test on P. aeruginosa (pH 8.0, at least 80% kill) it was 40. In addition, the MIC with Aspergillus niger was over 100 µg/mL; in the test with Chlorella pyrenoidosa (setting [3]), 1 µg/mL (≈ 3.91 µM); with Chlorococcum hypnosporum (setting [4]), 1 µg/mL (≈ 3.91 µM). Moreover, the “lysosomotropic detergent, useful as anti-cancer compounds and spermicides” value in [1] is recorded as “lysosomotropic detergents”. In [2], the “help the transport of anionic drugs” value is listed as “help the transport of anionic drugs”.
Take `CCCCCCCCCCCCn1ccnc1` [Compound 2, N-Dodecylimidazole]: the Minimum inhibitory concentration is given as 1000 with E. aerogenes (pH 6.0, at least 80% kill); over 1000 with E. aerogenes (pH 8.0, at least 80% kill); 4 with P. aeruginosa (pH 6.0, at least 80% kill); 10 in the test on P. aeruginosa (pH 8.0, at least 80% kill). The MIC was 32 µg/mL (≈ 135 µM) in the test on Aspergillus niger, 0.5 µg/mL (≈ 2.12 µM) in the test with Chlorella pyrenoidosa (setting [3]), 0.7 µg/mL (≈ 2.96 µM) in the test with Chlorococcum hypnosporum (setting [4]) and 2 µg/mL (≈ 8.46 µM) in the test with Phormidium inundatum (setting [5]). Besides, the “lysosomotropic detergent, useful as anti-cancer compounds and spermicides” value in test [1] is “lysosomotropic detergents”. For the same molecule, in the test on cholesterol biosynthesis, the “inhibitor of cholesterol biosynthesis” value is recorded as “inhibitor of cholesterol biosynthesis in rat liver”. Besides, the “inhibitor of epoxidation of aldrin” value with epoxidation of aldrin is “inhibitor of epoxidation of aldrin of rat liver”.
For the molecule `CCCCCCCCCCCCN1CC(C)OC(C)C1` (centres unmarked) [Compound 3, N-dodecyl-2,6-dimethylmorpholine], the Minimum inhibitory concentration in the test on E. aerogenes (pH 6.0, at least 80% kill) came to 1000; with E. aerogenes (pH 8.0, at least 80% kill), 1000. Moreover, the MIC in the test with Aspergillus niger is 128 µg/mL (≈ 451 µM); in the test with Chlorella pyrenoidosa (setting [3]), 10 µg/mL (≈ 35.3 µM); with Chlorococcum hypnosporum (setting [4]) it was under 1 µg/mL; in the test with Phormidium inundatum (setting [5]), 1000 µg/mL (≈ 3530 µM).
Regarding `CCCCCCCCCCCCN1CC(CCl)OC1=O` (centres unmarked) [Compound 4, N-dodecyl-5-chloromethyl-2-oxazolidinone], the Minimum inhibitory concentration with E. aerogenes (pH 6.0, at least 80% kill) was found to be 1000; in the test on E. aerogenes (pH 8.0, at least 80% kill), 1000. The MIC in the test with Aspergillus niger was over 512 µg/mL; with Chlorella pyrenoidosa (setting [3]) it was 100 µg/mL (≈ 329 µM); in the test on Chlorococcum hypnosporum (setting [4]), 100 µg/mL (≈ 329 µM); in the test with Phormidium inundatum (setting [5]), 100 µg/mL (≈ 329 µM).
With `CCCCCCCCCCCCN1CCCC1=O` [Compound 5, N-Dodecyl-2-pyrrolidinone], the Minimum inhibitory concentration with E. aerogenes (pH 6.0, at least 80% kill) came out at 1000; in the test on E. aerogenes (pH 8.0, at least 80% kill), 1000. Also, the MIC was determined as 32 µg/mL (≈ 126 µM) with Aspergillus niger, 10 µg/mL (≈ 39.5 µM) in the test on Chlorella pyrenoidosa (setting [3]), 10 µg/mL (≈ 39.5 µM) with Chlorococcum hypnosporum (setting [4]) and 10 µg/mL (≈ 39.5 µM) in the test with Phormidium inundatum (setting [5]).
`CCCCCCCCCCCCN1CCCCCC1` [Compound 6, N-Dodecylhexamethyleneimine]: the Minimum inhibitory concentration in the test on E. aerogenes (pH 6.0, at least 80% kill) was over 1000; in the test with E. aerogenes (pH 8.0, at least 80% kill), 1000. The MIC in the test on Aspergillus niger was 256 µg/mL (≈ 957 µM); in the test on Chlorella pyrenoidosa (setting [6]), 1 µg/mL (≈ 3.74 µM); in the test with Chlorococcum hypnosporum (setting [6]), 1 µg/mL (≈ 3.74 µM); in the test on Phormidium inundatum (setting [6]), 10 µg/mL (≈ 37.4 µM).
`CCCCCCCCCCCCN1CCCC1` [Compound 7, N-Dodecylpyrrolidine]: the Minimum inhibitory concentration with E. aerogenes (pH 6.0, at least 80% kill) is on record as 1000; with E. aerogenes (pH 8.0, at least 80% kill), over 1000. Moreover, the MIC in the test with Aspergillus niger came to 128 µg/mL (≈ 535 µM); in the test with Chlorella pyrenoidosa (setting [6]), 1 µg/mL (≈ 4.18 µM); in the test on Chlorococcum hypnosporum (setting [6]), 1 µg/mL (≈ 4.18 µM); with Phormidium inundatum (setting [6]), 1 µg/mL (≈ 4.18 µM).
For the molecule `CCCCCCCCCCCCN1CCCC(C)C1` (centres unmarked) [Compound 8, N-dodecyl-3-methylpiperidine], the Minimum inhibitory concentration with E. aerogenes (pH 6.0, at least 80% kill) is on record as 1000; in the test with E. aerogenes (pH 8.0, at least 80% kill) it was over 1000. Further, the MIC amounted to 256 µg/mL (≈ 957 µM) in the test with Aspergillus niger, 10 µg/mL (≈ 37.4 µM) in the test on Chlorella pyrenoidosa (setting [3]), 1 µg/mL (≈ 3.74 µM) in the test with Chlorococcum hypnosporum (setting [4]) and 10 µg/mL (≈ 37.4 µM) in the test with Phormidium inundatum (setting [5]).
As for `CCCCCCCCCCCCN1CCCCC1` [Compound 9, N-Dodecylpiperidine], the Minimum inhibitory concentration was found to be 1000 with E. aerogenes (pH 6.0, at least 80% kill) and 1000 with E. aerogenes (pH 8.0, at least 80% kill). The MIC in the test on Aspergillus niger is 32 µg/mL (≈ 126 µM); in the test with Chlorella pyrenoidosa (setting [6]), 1 µg/mL (≈ 3.95 µM); in the test with Chlorococcum hypnosporum (setting [6]) it was 1 µg/mL (≈ 3.95 µM); in the test with Phormidium inundatum (setting [6]), 10 µg/mL (≈ 39.5 µM).
Take `CCCCCCCCCCCCN1CCC(C)CC1` [Compound 10, N-Dodecyl-4-methylpiperidine]: the Minimum inhibitory concentration is given as 100 in the test on E. aerogenes (pH 6.0, at least 80% kill) and over 1000 in the test on E. aerogenes (pH 8.0, at least 80% kill). The MIC in the test with Aspergillus niger was 1000 µg/mL (≈ 3740 µM); in the test on Chlorella pyrenoidosa (setting [3]), under 1 µg/mL; in the test on Chlorococcum hypnosporum (setting [4]), under 1 µg/mL; with Phormidium inundatum (setting [5]) it was under 1 µg/mL.
On to `CCCCCCCCCCCCN1CCCCC1C` (centres unmarked) [Compound 11, N-Dodecyl-2-methylpiperidine], for which the Minimum inhibitory concentration is 100 in the test with E. aerogenes (pH 6.0, at least 80% kill) and over 1000 in the test on E. aerogenes (pH 8.0, at least 80% kill). The MIC with Aspergillus niger is 1000 µg/mL (≈ 3740 µM); in the test with Chlorella pyrenoidosa (setting [6]), under 1 µg/mL; in the test with Chlorococcum hypnosporum (setting [6]), under 1 µg/mL; in the test on Phormidium inundatum (setting [6]) it was 5 µg/mL (≈ 18.7 µM).
